Source: patent US6254898A, “Nutraceutical composition for protection against solar radiation” (Protective Factors, Inc., priority 2000, dated 2001)

Columns and labels:
[1] = tested on: fibroblast cell line BALB/3T3 clone A31; experiment: UV protecting activity: viability of UVA-irradiated fibroblasts (MTT assay); format: cell-based, mouse; settings: UVA-irradiated BALB/3T3 cells
Protocol: Exposure of skin to sunlight especially to ultraviolet A (320-380 nm) radiation has been reported to induce photochemical generation of reactive oxygen species, resulting in membrane lipid peroxidation, photodamage to DNA, and inactivation of fibroblasts. […] A mammalian fibroblast cell line was used to determine the UV-protective action of the blend and the components at a cellular level.
Dulbecco's Modified Eagle Medium (DMEM) with 4 mM L-glutamine and 110 mg/l sodium pyruvate, Dulbecco's phosphate buffered saline (DPBS) without calcium or magnesium, fetal bovine serum, trypsin-EDTA solution, 2-thiobarbituric acid, MTT, and trichloroacetic acid were obtained from Sigma. […] The capsule's contents were extracted in ethanol [0.5 g (contents of one capsule) in 5 ml ethanol and the components at concentrations incorporated in the blend in 5 ml ethanol]. The extracts were diluted using the culture medium or DPBS.
Cells were maintained in 250 ml Corning flasks having a 0.2 μ vented cap in 10 ml of DMEM supplemented with 10% fetal bovine serum. The cultures were incubated at 37° C. in a CO2 incubator with 90% air and 10% CO2. The cells were subcultured every 5 days.
Assays were performed in 35 mm Costar tissue culture plates. The cells were plated at a density of 90,000 cells per well in the growth medium and allowed to attach and grow for 48 hr. The medium was changed after 36 hr with fresh medium containing the extracts at different concentrations. After 12 hr of incubation with the test extracts, the cells were washed with DPBS to remove the original medium. One ml of DPBS with or without the test extracts was added to each dish. The cells were incubated for 1 hr before exposure to UV irradiation. Non-irradiated cells were used as the control. […] Biophys. […] The results are the means ±SD of triplicate measurements.

[2] = DPPH radical reduction (cell-free spectrophotometric assay); format: biochemical; settings: at the dilutions tested
Protocol: (§1) The cytotoxic effects of ultraviolet A irradiation on mammalian cells (e.g., skin fibroblasts) have been attributed largely to photoreactions that generate reactive oxygen species, such as superoxide and hydrogen peroxide. The free radical scavenging activity of the blend and its components was determined in vitro using spectrophotometric assays (Yen, G. C. and Duh, P. D., J. Agric. Food Chem., 42: 629-632, 1994; Facino, R. M., Carini, M., Aldini, G., Berti, F., and Rossoni, G., Planta Med., 65: 614-619, 1999). The superoxide scavenging activity was assessed in a non-enzymatic system. The reduction of the stable free radical DPPH (2,2-diphenyl-1-picrylhydrazyl radical), indicative of the neutralizing action upon the already formed free radicals, also was determined in a cell-free system. […]
(§2) The superoxide scavenging activity was determined in a superoxide generating system containing 20 μM of phenazine methosulfate, 156 μM of β-NADH, 50 mM of phosphate buffer, and the extracts at various levels. The reaction was initiated by adding nitroblue tetrazolium (25 μM) and the reduction was monitored using a spectrophotometer at 556 nm. […] The reduction in absorbence was measured using a spectrophotometer at 515 nm. […] The percent inhibition is expressed as the quenching ratio represented by the following formula: [formula]

[3] = biological target: T1, Trypsin Type III from bovine pancreas (Bos taurus, UniProt P00760); experiment: Trypsin inhibitory activity (BAPNA substrate); format: biochemical; settings: at the dilutions tested for the blend
T1 construct: purchased Sigma; host or cells: bovine pancreas
T1 sequence (P00760 24-246): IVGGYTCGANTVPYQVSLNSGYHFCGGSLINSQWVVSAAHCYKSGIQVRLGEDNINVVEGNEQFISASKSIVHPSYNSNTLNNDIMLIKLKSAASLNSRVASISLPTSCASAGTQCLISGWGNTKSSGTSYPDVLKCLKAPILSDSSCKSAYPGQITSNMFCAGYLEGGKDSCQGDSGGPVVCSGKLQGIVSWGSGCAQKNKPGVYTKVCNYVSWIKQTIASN
Protocol: Serine protease inhibitory activity was determined in vitro by measuring the trypsin inhibitory activity of the blend and its components. Trypsin inhibitory activity was determined by the spectrophotometric determination of the release of p-nitroaniline from a synthetic substrate N-α-benzoyl-DL-arginine-p-nitroanilide hydrochloride (BAPNA) (Parellada, J. and Guinea, M., J. Nat. Prod., 58: 823-829, 1995; Geiger, R. and Fritz, H., In Methods of Enzymatic Analysis, Bergmeyer, H. V., et al (Eds), Verlag-Chemie, Basel, Switzerland, Vol. V, p. 119-129, 1984).
Trypsin Type III from bovine pancreas, BAPNA, and p-nitroaniline were obtained from Sigma. The inventive blend and its components were supplied in a capsule containing: green tea extract, 250 mg; lutein, 15 mg; Se, 50 mcg; and lipoic acid, 50 mg. The capsule's contents were extracted in ethanol [0.5 g (contents of one capsule) in 5 ml ethanol and the components at concentrations incorporated in the blend in 5 ml ethanol].
Aliquots of the enzyme solution (0.25 ml of a 1060 units/ml solution in 0.05 M Tris buffer, pH 7.8) and the buffer (0.25 ml) with various concentrations of the test extracts and without extracts (reference solution) were pre-incubated at 37° C. for 10 min. Blank samples were prepared by inactivating the enzyme with 0.5 ml of 2 M acetic acid before incubation. The enzymatic reaction was started by adding to the reaction mixture 1.25 ml of the substrate solution (1 mM in 0.05 M Tris buffer, pH 7.8). The mixture was incubated for 10 min and the reaction was stopped by adding 0.5 ml of 2 M acetic acid. The p-nitroaniline released was measured using a spectrophotometer at 410 nm. The results are the means ±SD of triplicate measurements. The inhibitory activity is expressed as the inhibition ratio represented by the following formula: [formula]

[4] = Superoxide scavenging activity in a non-enzymatic superoxide generating system; format: biochemical; settings: at the dilutions tested
Protocol: as §1, §2

Compound | UV protection: activity of the components [1] | DPPH: activity among the four components [2] | trypsin: activity of the components [3] | range of concentrations at which the component was active in the UV protection assay [1] [µg/mL] | superoxide: activity among the four components [4]
CC1=C[C@H](O)CC(C)(C)[C@H]1/C=C/C(C)=C/C=C/C(C)=C/C=C/C=C(C)/C=C/C=C(C)/C=C/C1=C(C)C[C@@H](O)CC1(C)C [lutein] | active | most active | active |  | 
C[Se]CC[C@H](N)C(=O)O [selenium, selenomethionine] | active |  | active | 0.001 to 1 | 
O=C(O)CCCCC1CCSS1 (stereo not shown) [lipoic acid, 6,8-thioctic acid] | active |  | active | 1 to 1000 | most active
